Test results published in patent publication US20110281951A1, “Compositions and methods for treating amyloidosis” (priority 1999, published 2011).
Several values for one entry are separate records, joined by “and”; a condition that tells them apart may be missing. Equal entries are not always repeated.

Experiments:
[1] = target: T1, splenic Amyloid A fibrils (Mus musculus, UniProt P05367); experiment: Acute AEF-AgNO3-induced amyloidosis mouse model (secondary amyloidosis); type: in vivo, mice; settings: for % PC (splenic AA fibrils, % of positive control): 5 days; for Activity (in vivo, secondary amyloidosis): overall grade over the concentrations tested
T1 construct: from tissue; host or cells: spleen of CBA/J mice (AEF/AgNO3-induced amyloidosis)
T1 sequence (P05367 20-95 limits assumed): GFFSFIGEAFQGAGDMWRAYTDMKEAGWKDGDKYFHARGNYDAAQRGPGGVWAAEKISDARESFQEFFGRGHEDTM
Protocol: The in vivo screening is based on the acute AEF-AgNO3-induced amyloidosis mouse model. The test is conducted on a total of 6 days and each compound administered in the drinking solution for a 5-day period.
Female mice of CBA/J strain are individually identified, weighed and assigned to a group of 5 animals following an acclimation period. The amyloidosis is induced by intravenous injection of 100 μg of AEF (amyloid enhancing factor) concomitantly with a subcutaneous injection of 0.5 ml of 2% of a solution of AgNO3. Animals in the negative control group are injected with saline only.
Twenty-four hours following the amyloidosis induction, the compound is added to a 1% solution of sucrose (vehicle) and distributed to animals in drinking bottles for a period of 5 days. Animals in the positive control group receive the vehicle only. Drinking solutions are made available ad libitum to each group of animals and the volume measured before and after use to calculate the consumption of each solution. Blood samples are collected for in vitro determination of plasma serum amyloid A levels.
On day 6, mice are sacrificed, weighed and organs such as spleen are existed and fixed in acid alcohol. Spleen samples are processed, embedded in paraffin wax and cut inyo sections. Spleen sections from each animal are stained with the Congo Red staining solution and the splenic Amyloid A fibrils aggregation evaluated by image analysis. Results are expressed as % of AA fibrils deposited in the splenic perifollicular area. Raw data is analyzed.
Mean of mouse body weight and the mean consumption of the drinking solution (ml) are compiled. Variation of the body weight before the induction and at the end of the assay is calculated (%). The dose level of the compound consumed (mg/kg/day) is calculated as well.
P-values for Student t-test and Mann-Whitney tests comparing a group to the positive control are calculated using GraphPad Prism computer software. The mean of the image analysis reading of spleen serious for a group is expressed as percentage of the mean of the image analysis readings for the positive control group (% PC).

Aβ(1-40) = target: T2, Aβ(1-40) (Homo sapiens, UniProt P05067); experiment: Circular dichroism analysis, pre-incubation assay, β-sheet at 218 nm; type: biochemical; settings: CD 218 nm, 0.02M Tris pH 7.4
T2 construct: Prepare a fresh 40 μm solution of Aβ(1-40) in 0.02M Tris, pH 7.4; made in house; host or cells: chemical synthesis (FMOC), HPLC purified
Protocol: The assay is conducted as follows:
Instrument: JASCO J-715 Spectropolarimeter.
Cell/cuvette: Hellma quartz (QS) with 1.0 mm pathlength Room temperature. Wavelength interval: 250 nm-190 nm.
Band width: 1.0 nm Response time: 1 sec Scanning speed: 20 nm/min Number of accumulations/spectrum: 5
1. Prepare a fresh 40 μm solution of Aβ(1-40) in 0.02M Tris, pH 7.4.
2. Prepare a 1 mM solution of test compounds in 0.02M Tris, pH 7.4.
3. Combine equal volumes of the Aβ(1-40) and test compound solutions.
4. Incubate the mixtures for 19 h.
5. Take the CD spectrum using the parameters above.
6. Return the mixtures to the incubator and incubate to 43 h.
7. Take the CD spectrum using the parameters above. • Inhibition of Aβ40 assembly/aggregation is determined by comparing the amount of b-sheet structure) appearing at lambda=218 nm) obtained in control and in treated sample at each timepoint.

[2] = 6.25 mg/ml in drinking solution
[3] = 12.5 mg/ml in drinking solution
[4] = 25.0 mg/ml in drinking solution

T2 sequence (P05067 672-711 limits assumed): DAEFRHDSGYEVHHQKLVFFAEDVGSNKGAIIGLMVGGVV

| Structure (SMILES) | % PC (splenic AA fibrils, % of positive control) [1, 2] | % PC (splenic AA fibrils, % of positive control) [1, 3] | % PC (splenic AA fibrils, % of positive control) [1, 4] | Activity (in vivo, secondary amyloidosis) [1] | % PC (splenic AA fibrils, % of positive control) ([1]; 3.5 mg/ml in drinking solution) [% PC] | relative inhibition compared to Aβ alone, incubation time 0 h (Aβ(1-40)) | relative inhibition compared to Aβ alone, incubation time 19 h (Aβ(1-40)) | relative inhibition compared to Aβ alone, incubation time 43 h (Aβ(1-40)) | % PC (splenic AA fibrils, % of positive control) ([1]; 3.13 mg/ml in drinking solution) [% PC] |
| --- | --- | --- | --- | --- | --- | --- | --- | --- | --- |
| COc1cc2c(cc1OC)CN(CCCS(=O)(=O)O)CC2 [I, 3-[2-(6,7-dimethoxy-1,2,3,4-tetrahydroisoquinolinyl)]-1-propanesulfonic acid] | 87 % PC | 76 % PC and 68 % PC | 69% PC | Moderate | – | – | – | – | – |
| N[C@@H](Cc1cccc(CS(=O)(=O)O)c1)C(=O)O [LVXIII, 3-Sulfomethyl-L-phenylalanine] | – | – | – | – | – | — (No effect compared to Aβ alone) | ++++ (++++: 75-100%) | — (No effect compared to Aβ alone) | – |
| CC(=O)NCCCS(=O)(=O)O [VIII, 3-acetylamino-1-propanesulfonic acid] | – | – | – | – | – | + (+: 0-25%) | ++++ (++++: 75-100%) | +++ (+++: 50-75%) | – |
| O=C(NCCCS(=O)(=O)O)c1ccccc1 [X, 3-benzoylamino-1-propanesulfonic acid] | – | – | – | – | – | + (+: 0-25%) | ++ (++: 25-50%) | ++ (++: 25-50%) | – |
| O=S(=O)(O)CCCN1CCC2=C(CCCC2)C1 [XVIII, 3-[2-(1,2,3,4,5,6,7,8-octahydroisoquinolinyl)]-1-propanesulfonic acid] | 86% PC | – | – | Moderate | – | – | – | – | 74 |
| O=C[C@H](NCCCS(=O)(=O)O)[C@@H](O)[C@H](O)[C@H](O)CO [XX, 2-deoxy-2-(3-sulfopropyl)amino-d-glucose] | 94% PC | 69% PC | – | Moderate | – | – | – | – | – |

Further lines, with some results ahead:

| % PC (splenic AA fibrils, % of positive control) [1, 2] | % PC (splenic AA fibrils, % of positive control) [1, 3] | % PC (splenic AA fibrils, % of positive control) [1, 4] | Activity (in vivo, secondary amyloidosis) [1] | % PC (splenic AA fibrils, % of positive control) ([1]; 3.5 mg/ml in drinking solution) [% PC] | relative inhibition compared to Aβ alone, incubation time 0 h (Aβ(1-40)) | relative inhibition compared to Aβ alone, incubation time 19 h (Aβ(1-40)) | relative inhibition compared to Aβ alone, incubation time 43 h (Aβ(1-40)) | Structure (SMILES) | % PC (splenic AA fibrils, % of positive control) ([1]; 3.13 mg/ml in drinking solution) [% PC] |
| --- | --- | --- | --- | --- | --- | --- | --- | --- | --- |
| 87% PC | 54 % PC and 67 % PC and 56 % PC | 82 % PC and 77 % PC | Moderate | 113 | — (No effect compared to Aβ alone) | + (+: 0-25%) | ++ (++: 25-50%) | O=S(=O)(O)CCCN1CCCc2ccccc21 [III, 3-[1-(1,2,3,4-tetrahydroquinolinyl)]-1-propanesulfonic acid] | – |
| 74 % PC and 40 % PC | 64 % PC and 38 % PC | – | Active | – | + (+: 0-25%) | +++ (+++: 50-75%) | ++ (++: 25-50%) | COc1ccc2c(c1)CCN(CCCS(=O)(=O)O)C2 [IX, 3-[2-(6-methoxy-1,2,3,4-tetrahydroisoquinolinyl)]-1-propanesulfonic acid] | – |
| 94 % PC and 91 % PC | 83% PC | 71 % PC and 97 % PC | Moderate | – | + (+: 0-25%) | ++ (++: 25-50%) | ++ (++: 25-50%) | O=S(=O)(O)CCCN1CCc2ccccc21 [VII, 3-(1-indolinyl)-1-propanesulfonic acid] | – |
